Experimental data from ChEMBL document CHEMBL4699515, “Staprexanthones, Xanthone-Type Stimulators of Pancreatic β-Cell Proliferation from a Mangrove Endophytic Fungus” (J Nat Prod, 2020).
Active and inactive are the calls of the source. The rule behind the calls is not given here.

Assays:
INS1(832/13) [1] = assay: Induction of cell cycle progression at G1/S transition in rat INS-1 832/13 cells assessed as increase in Cdk 2 mRNA expression at 10 uM after 24 hs by qRT-PCR analysis; type: functional, cell-based; settings: time 24.0 hrs
INS1(832/13) [2] = assay: Induction of cell proliferation in rat INS-1 832/13 cells after 24 hrs by CCK8 assay; type: functional, cell-based
[3] = Toxicity in 6 days post fertilize Tg(-1.2ins:H2BmCherry)Tg(ins:mAG-zGeminin(1/100)) zebra fish beta cells at 50 uM after 24 hrs by confocal microscopic method; type: tissue-based, Danio rerio; settings: zebrafish, pancreatic beta cell
Pancreatic beta cell [4] = assay: Induction of beta cells proliferation in 6 days post fertilize Tg(-1.2ins:H2BmCherry)/TgBAC(neurod1:eGFP) zebra fish larvae at 10 uM after 24 hrs by confocal microscopic method; type: functional, tissue-based; settings: Danio rerio
Pancreatic beta cell [5] = assay: Induction of beta cells proliferation in 6 days post fertilize Tg(-1.2ins:H2BmCherry)Tg(ins:mAG-zGeminin(1/100)) zebra fish larvae assessed as increase in beta cells at 50 uM after 24 hrs by confocal microscopic method relative to control; type: functional; settings: Danio rerio
INS1(832/13) [6] = assay: Induction of cell cycle progression at G1/S transition in rat INS-1 832/13 cells assessed as increase in Cyclin E mRNA expression at 10 uM after 24 hs by qRT-PCR analysis; type: functional, cell-based; settings: time 24.0 hrs
INS1(832/13) [7] = assay: Induction of cell cycle progression at G1/S transition in rat INS-1 832/13 cells assessed as increase in Cdk 4 mRNA expression at 10 uM after 24 hs by qRT-PCR analysis; type: functional, cell-based; settings: time 24.0 hrs
INS1(832/13) [8] = assay: Induction of cell cycle progression at G1/S transition in rat INS-1 832/13 cells assessed as decrease in p21 mRNA expression at 10 uM after 24 hs by qRT-PCR analysis; type: functional, cell-based; settings: time 24.0 hrs
Pancreatic beta cell [9] = assay: Induction of beta cells proliferation in 6 days post fertilize Tg(-1.2ins:H2BmCherry)Tg(ins:mAG-zGeminin(1/100)) zebra fish larvae assessed as increase in total beta cells after 24 hrs by confocal microscopic method; type: functional; settings: Danio rerio, dose microM 5-25, time 24.0 hrs
Pancreatic beta cell [10] = assay: Induction of beta cells proliferation in 6 days post fertilize Tg(-1.2ins:H2BmCherry)/Tg(gcga:eGFP) zebra fish larvae at 10 uM after 24 hrs by confocal microscopic method; type: functional; settings: Danio rerio
INS1(832/13) [11] = assay: Induction of cell cycle progression at G1/S transition in rat INS-1 832/13 cells assessed as decrease in p27 mRNA expression at 10 uM after 24 hs by qRT-PCR analysis; type: functional, cell-based; settings: time 24.0 hrs
[12] = Induction of beta cells proliferation in 6 days post fertilize Tg(-1.2ins:H2BmCherry)Tg(ins:mAG-zGeminin(1/100)) zebra fish larvae assessed as number of replicated beta cells at 10 uM after 24 hrs by confocal microscopic method (reference value: 1.7 +/- 0.5); type: functional, Danio rerio, Pancreatic beta cell
Pancreatic beta cell [13] = assay: Induction of beta cells proliferation in 6 days post fertilize Tg(-1.2ins:H2BmCherry)Tg(ins:mAG-zGeminin(1/100)) zebra fish larvae assessed as increase in beta cell proliferation after 24 hrs by confocal microscopic method; type: functional; settings: Danio rerio, dose microM 5-25, time 24.0 hrs
[14] = Induction of beta cells proliferation in 5 days post fertilize Tg(-1.2ins:H2BmCherry) zebra fish larvae assessed as beta cell number at 10 uM after 24 hrs by confocal microscopic method (reference value: 35 +/- 1); type: functional, Danio rerio, Pancreatic beta cell
[15] = Induction of beta cells proliferation in 6 days post fertilize Tg(-1.2ins:H2BmCherry)Tg(ins:mAG-zGeminin(1/100)) zebra fish larvae assessed as increase in beta cell proliferation at 25 uM after 24 hrs by confocal microscopic method relative to control; type: functional, Danio rerio, Pancreatic beta cell
Pancreatic beta cell [16] = assay: Induction of beta cells proliferation in 6 days post fertilize Tg(-1.2ins:H2BmCherry)Tg(ins:mAG-zGeminin(1/100)) zebra fish larvae assessed as increase in total beta cells at 5 to 10 uM after 24 hrs by confocal microscopic method; type: functional; settings: Danio rerio, dose microM 5-10, time 24.0 hrs
Pancreatic beta cell [17] = assay: Induction of beta cells proliferation in 6 days post fertilize Tg(-1.2ins:H2BmCherry)Tg(ins:mAG-zGeminin(1/100)) zebra fish larvae assessed as increase in beta cell proliferation at 5 to 10 uM after 24 hrs by confocal microscopic method; type: functional; settings: Danio rerio, dose microM 5-10, time 24.0 hrs
Pancreatic beta cell [18] = assay: Induction of beta cells proliferation in 6 days post fertilize Tg(-1.2ins:H2BmCherry)Tg(ins:mAG-zGeminin(1/100)) zebra fish larvae assessed as increase in beta cell proliferation at 25 to 50 uM after 24 hrs by confocal microscopic method; type: functional; settings: Danio rerio, dose microM 25-50, time 24.0 hrs
Pancreatic beta cell [19] = assay: Induction of beta cells proliferation in 6 days post fertilize Tg(-1.2ins:H2BmCherry)Tg(ins:mAG-zGeminin(1/100)) zebra fish larvae assessed as increase in total beta cells at 25 to 50 uM after 24 hrs by confocal microscopic method; type: functional, cell-based; settings: Danio rerio, dose microM 25-50, time 24.0 hrs

| SMILES | Activity (INS1(832/13) [1]) | Activity (INS1(832/13) [2]) | Activity [3] | Activity (Pancreatic beta cell [4]) | Activity (Pancreatic beta cell [5]) | Activity (INS1(832/13) [6]) | Activity (INS1(832/13) [7]) | Activity (INS1(832/13) [8]) | Activity (Pancreatic beta cell [9]) | Activity (Pancreatic beta cell [10]) | Activity (INS1(832/13) [11]) | Activity [12] | Activity (Pancreatic beta cell [13]) | Activity [14] | Activity [15] [%] | Activity (Pancreatic beta cell [16]) | Activity (Pancreatic beta cell [17]) | Activity (Pancreatic beta cell [18]) | Activity (Pancreatic beta cell [19]) |
| --- | --- | --- | --- | --- | --- | --- | --- | --- | --- | --- | --- | --- | --- | --- | --- | --- | --- | --- | --- |
| C=CC(C)(C)c1c(C)c(CC=C(C)C)c(O)c2c(=O)c3c(CO)cccc3oc12 | Active | Active | Toxic | Active | inactive | Active | Active | Active | Dose-dependent effect | Active | Active | 3.6 | Dose-dependent effect | 40 | 10 | – | – | – | – |
| C[C@]12C=CC(=O)C=C1CC[C@@H]1[C@@H]2[C@@H](O)C[C@@]2(C)[C@H]1CC[C@]2(O)C(=O)CO [PREDNISOLONE] | – | – | – | – | – | – | – | – | – | – | – | – | – | 40 | – | – | – | – | – |
| CC(C)=CCc1c(C)cc2oc3cccc(C4O[C@H](C)[C@@H](C)O4)c3c(=O)c2c1O | – | – | – | – | – | – | – | – | – | – | – | – | – | 39 | – | – | – | – | – |
| C=CC(C)(C)c1cc(CC=C(C)C)c(O)c2c(=O)c3c(CO)cc(C)cc3oc12 | Active | Active | Toxic | Active | – | Active | Active | Active | – | Active | Active | 4.3 | – | 40 | – | Dose-dependent effect | Dose-dependent effect | inactive | inactive |
